Literature values, collected in patent US8877808B2, “Protection against skin diseases by aurin tricarboxylic acid and its derivatives” (Aurin Biotech Inc., priority 2012, dated 2014).

Biological target: C9 binding to C5b678 (Homo sapiens, UniProt P02748)
Conditions: Lee et al. 2012a

C9 binding to C5b678, sequence (P02748 22-559): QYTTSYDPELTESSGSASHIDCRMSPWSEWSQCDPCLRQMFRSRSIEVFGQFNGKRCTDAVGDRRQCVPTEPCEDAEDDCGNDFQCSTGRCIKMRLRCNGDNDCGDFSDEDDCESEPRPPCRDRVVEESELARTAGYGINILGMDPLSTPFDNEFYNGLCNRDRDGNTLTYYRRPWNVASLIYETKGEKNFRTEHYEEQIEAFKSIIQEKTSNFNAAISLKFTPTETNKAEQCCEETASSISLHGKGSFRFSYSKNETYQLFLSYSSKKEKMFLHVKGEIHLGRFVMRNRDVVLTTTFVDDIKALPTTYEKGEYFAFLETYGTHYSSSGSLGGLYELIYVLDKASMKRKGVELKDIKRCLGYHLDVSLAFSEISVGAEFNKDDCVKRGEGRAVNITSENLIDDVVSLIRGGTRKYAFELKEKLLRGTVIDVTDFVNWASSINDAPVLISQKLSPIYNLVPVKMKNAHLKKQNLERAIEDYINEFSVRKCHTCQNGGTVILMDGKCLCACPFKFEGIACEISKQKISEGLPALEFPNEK

Row | Substance | block of classical pathway at C9 binding to C5b678, formation of the MAC (C5b-9)
1 | aurin quadracarboxylic acid [AQA] | block classical pathway formation at the stage of C9 binding to C5b678
2 | aurin hexacarboxylic acid [AHA] | block classical pathway formation at the stage of C9 binding to C5b678
